Assay results: paper PMC7802075 (ACS Infectious Diseases, 2020)
Where a SMILES comes first, the peptide text is derived from it.

Molecular target: T1, LmjIPCS (inositol phosphorylceramide synthase from L. major) (Leishmania major, UniProt E9AFX2)
T1 sequence (E9AFX2 1-338): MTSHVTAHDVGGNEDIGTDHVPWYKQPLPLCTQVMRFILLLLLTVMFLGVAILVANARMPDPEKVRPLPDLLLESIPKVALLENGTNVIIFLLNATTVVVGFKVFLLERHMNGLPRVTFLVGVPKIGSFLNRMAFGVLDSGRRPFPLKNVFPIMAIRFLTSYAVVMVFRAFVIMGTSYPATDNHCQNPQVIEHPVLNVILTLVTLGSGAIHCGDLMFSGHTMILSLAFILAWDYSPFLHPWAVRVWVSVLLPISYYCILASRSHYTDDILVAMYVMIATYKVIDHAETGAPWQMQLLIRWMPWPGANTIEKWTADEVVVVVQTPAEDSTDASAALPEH
Assay: biochemical
Assay type: biochemical
Design: inhibition: dose or concentration left out as unconfirmed
Settings: not given

First: Nc1ccc(C(=O)[O-])cc1.[K+] [POTASSIUM p-AMINOBENZOATE]
Second: NCC(CC(=O)O)c1ccc(Cl)cc1 (stereo not shown) [BACLOFEN]
The “20mM inhibition LmjIPCS” value of the first is lower: 40% for the first, 50% for the second.

First: N=C(N)N [GUANIDINE]
Second: CRESOL
The “20mM inhibition LmjIPCS” value of the first is lower: 20% for the first, 53% for the second.

Compared with `CCN1CCCC1CNC(=O)c1cc(S(N)(=O)=O)ccc1OC` (stereo not shown) [SULPIRIDE], `CN1CCOC(c2ccccc2)c2ccccc2C1` (stereo not shown) [NEFOPAM] is higher in “20mM inhibition LmjIPCS” value: 43% for the first, 68% for the second.

In the case of `O=C(O)c1cc(O)c2c(c1)[C@H]([C@H]1c3cc(C(=O)O)cc(O)c3C(=O)c3c(O[C@@H]4O[C@H](CO)[C@@H](O)[C@H](O)[C@H]4O)cccc31)c1cccc(O[C@@H]3O[C@H](CO)[C@@H](O)[C@H](O)[C@H]3O)c1C2=O` [SENNOSIDE A], the “20mM inhibition LmjIPCS” value is reported as 62%.

Same assay, conditions: NINDS set screen, single concentration 20mM as printed

With `CNC[C@H](O)c1ccc(O)c(O)c1.O=C(O)C(O)C(O)C(=O)O` [ADRENALINE BITARTRATE] the “20mM inhibition LmjIPCS” value was -5.34%.

Same assay, conditions: NINDS set screen, single concentration printed as 20mM

Compared with `CCCCCCc1ccc(O)cc1O` [HEXYLRESORCINOL], `Cc1cc(C(C)(C)C)c(O)c(C(C)(C)C)c1` [2,6-DI-t-BUTYL-4-METHYLPHENOL] is lower in “20mM inhibition LmjIPCS” value: 47% for the first, 36% for the second.

Same assay, conditions: NINDS set screen; read-out: inhibition LmjIPCS

Going from `CC12CCC(CC1)C(C)(C)O2` [CINEOLE] to `CC(=O)S[C@@H]1CC2=CC(=O)CC[C@]2(C)[C@H]2CC[C@@]3(C)[C@@H](CC[C@@]34CCC(=O)O4)[C@H]12` [SPIRONOLACTONE], the inhibition rises from -13% to -1.06%.

In the case of `O=C(O)c1cc(O)c2c(c1)C(=O)c1cc(O)cc(O)c1C2=O` [EMODIC ACID], the inhibition is reported as 14%.

Same assay, conditions: read-out: 20mM inhibition LmjIPCS

First: CN[C@@H]1[C@H](O[C@H]2[C@H](O[C@H]3[C@H](O)[C@@H](O)[C@H](NC(=N)N)[C@@H](O)[C@@H]3NC(=N)N)O[C@@H](C)[C@]2(O)CO)O[C@@H](CO)[C@H](O)[C@H]1O [DIHYDROSTREPTOMYCIN]
Second: CN[C@@H]1[C@H](O)[C@H](NC)[C@H]2O[C@@]3(O)C(=O)C[C@@H](C)O[C@H]3O[C@@H]2[C@H]1O [SPECTINOMYCIN]
The inhibition at 20000 µM of the first is lower: 12% for the first, 19% for the second.

Going from `NCCCC[C@H](N)C(=O)N[C@@H](Cc1ccccc1)C(=O)N[C@@H](Cc1ccc(O)cc1)C(=O)O` [LYSYLPHENYLALANYLTYROSINE] (H-Lys-Phe-Tyr-OH) to `CC(=O)N[C@@H](Cc1c[nH]c2ccccc12)C(=O)O` [ACETYLTRYPTOPHAN], the inhibition at 20000 µM falls from 4.61% to -17%.

First: CCN1CCN(C(=O)N[C@@H](C(=O)N[C@@H]2C(=O)N3C(C(=O)O)=C(CSc4nnnn4C)CS[C@H]23)c2ccc(O)cc2)C(=O)C1=O [CEFOPERAZONE]
Second: CC(Cc1ccc(O)cc1)NCC(O)c1cc(O)cc(O)c1 (stereo not shown) [FENOTEROL]
The inhibition at 20000 µM of the first is lower: 13% for the first, 15% for the second.

First: N[C@@H](CCC(=O)N[C@@H](CS)C(=O)NCC(=O)O)C(=O)O [GLUTATHIONE]
Second: CC(=O)Oc1c(C)c(C)c2c(c1C)CCC(C)(CCC[C@H](C)CCC[C@H](C)CCCC(C)C)O2 (stereo partly drawn) [alpha-TOCOPHERYL ACETATE]
The inhibition at 20000 µM of the first is higher: -0.349% for the first, -0.425% for the second.

With `CC[C@H]1CN2CCc3cc(OC)c(OC)cc3[C@@H]2C[C@@H]1C[C@H]1NCCc2cc(OC)c(OC)cc21` [EMETINE] the inhibition at 20000 µM was 11%.

Same assay, conditions: read-out: inhibition LmjIPCS

First: OCCN1CCN(CCCN2c3ccccc3Sc3ccc(Cl)cc32)CC1 [PERPHENAZINE]
Second: O=C(C1CCCCC1)N1CC(=O)N2CCc3ccccc3C2C1 (stereo not shown) [PRAZIQUANTEL]
The inhibition of the first is higher: 0.226% for the first, -3.78% for the second.

Compared with `CC(C)[N+](C)(CCC(C(N)=O)(c1ccccc1)c1ccccc1)C(C)C` [ISOPROPAMIDE], `COc1ccc(NS(=O)(=O)c2ccc(N)cc2)nn1` [SULFAMETHOXYPYRIDAZINE] is lower in inhibition: 11% for the first, -15% for the second.

`NCC(=O)CCC(=O)O` [AMINOLEVULINIC ACID] was tested, and the inhibition was 28%.

Same assay, conditions: screening of NINDS set, sheet Screen 1; read-out: inhibition LmjIPCS

Going from `COc1c(N2CCNC(C)C2)c(F)cc2c(=O)c(C(=O)O)cn(C3CC3)c12` (stereo not shown) [GATIFLOXACIN] to `C[C@](N)(Cc1ccc(O)c(O)c1)C(=O)O` [METHYLDOPA], the inhibition rises from 2.29% to 8%.

Compared with `COc1ccc(/C=C/c2cc(O)cc(O[C@@H]3O[C@H](CO)[C@@H](O)[C@H](O)[C@H]3O)c2)cc1O` [RHAPONTIN], `CCCc1cc(C(N)=S)ccn1` [PROTHIONAMIDE] is higher in inhibition: 3% for the first, 9% for the second.
